# *1 amine or outer side, *2 acyl side, *3 side chain or, on linkers, in order; H or OH if unused. Where a SMILES comes first, the peptide text is derived from it. Bridges are numbered along the chain shown (N, C = ends). Roman numbers before positions name the chains, in order. [ ]: non-standard residue; d: D form. Actinocin(9to1) = Cc1c2oc3c(C)ccc(C(=O)[*:1])c3nc-2c(C(=O)[*:2])c(N)c1=O; NMeV = CN[C@H](C(=O)O)C(C)C; Sar = CNCC(=O)O
# Key:
# [1] = test system: clinically isolated human cancer cells (lung adenocarcinoma, lung squamous cell carcinoma, osteosarcoma, ovarian carcinoma); experiment: Anti-tumor activity on clinically isolated human cancer cells, morphological changes (A-I Part 2); format: cell-based
# Experimental: Lung adenocarcinoma, lung squamous cell carcinoma, osteosarcoma and ovarian carcinoma were selected as clinically isolated human cancer cells, and the anti-tumor activities of various drugs were examined. Specifically, various tumor tissues were individually cut to thin pieces by a razor, and by washing in saline by using a 1 mm mesh, the connective tissues were removed. The resulting solution was centrifuged at 1000 rpm for 1 minute to remove necrotizing substances. Washing with saline gave tumor cells.
# They were incubated at 37° for 4 to 8 hours. Thereafter, pumping was carried out to disperse the tissue pieces. Then, centrifugation at 1000 rpm for 5 minutes, cell coating and Giemsa staining were performed. The anti-tumor activity of each drug was examined on the basis of observation of the morphological changes of the tumor cells under a microscope.
# The experiment was conducted on two examples of each tumor cells (total 8 examples).
# [2] = test system: V79/S; experiment: Anti-cancer activity potentiating action, colony formation, V79/S parent cells (A-III); format: cell-based, Chinese hamster; details: for IC50: Cricetulus griseus
# Experimental: (§1) The anti-cancer activity potentiating action of the malate of formula (I) was examined using Chinese hamster cells (sensitive cell line V79/S and ADM-resistant cell line V79/ADM), human hepatoma cells (sensitive cell line PLC/S and colchicin-resistant cell line PLC/Col) and mouse leukemia cells (sensitive cell line L5178Y/S) and aclarubicin-resistant cell line L5178Y/ACR).
# (§2) Of these tumor cells, the sensitive cells (400 cells) and the resistant cells (600 cells) were each incubated in 10 ml of Eagle's MEM medium containing 10% bovine serum for 24 hours, and then each of the test drugs indicated in Table 6 was added. Thereafter, the incubation was carried out for 9 days. The concentration (IC50 : micrograms/ml) of the test drug required to inhibit 50% of the colony formation (proliferation) of the tumor cells was calculated.
# (§3) (A) Chinese hamster V79 cells
# (§4) As anti-cancer agents, there were used adriamycin (ADM), aclarubicin (ACR), actinomycin D (ACD), 5-fluorouracil (5-FU), cytarabin (Ara-C), cisplatin (CDDP), methotrexate (MTX), mitomycin C (MMC), nimustine (ACNU), mitoxantrone, etoposide ([…]), vincristine (VCR), bleomycin (BLM) and peplomycin (PEP). For the sensitive cells, the anti-cancer agents were used in combination with 10 micrograms/ml of the malate of formula (I), and for the resistant cells, the anti-cancer agents were used in combination with the malate of formula (I) 3 micrograms/ml, 5 micrograms/ml, and 10 micrograms/ ml.
# [3] = test system: V79/S; experiment: Colony formation (proliferation) inhibition, sensitive Chinese hamster cells (A-I Part 1); format: cell-based
# Experimental: (§5) Sensitive cell line V79/S and ADM-resistant cell line V79/ADM of the Chinese hamster were used, and sensitive cell line PLC/S and cholchicin-resistant cell line PLC/Col, as human hepatoma cells.
# (§6) The sensitive cell lines (400 cells) or the resistant cell lines (600 cells) were each incubated for 24 hours in 10 ml of Eagle's MEM medium containing 10% bovine serum. Each of the drugs indicated in Table 1 below was dissolved in ethanol, and 50 microliters of the resulting solution was added to the medium. The incubation was further carried out for 9 days. The concentration of the drug which inhibits 50% of the colony formation (proliferation) of the tumor cells was calculated.
# (§7) V79/S and V79/ADM were tested by using all of the drugs described above, but PLC/S and PLC/Col were tested by using only the malate of formula (I), adriamycin and peplomycin.
# (§8) The concentrations (micrograms/ml) required to inhibit 50% of the proliferation of the tumor cells, expressed by IC50, are shown in Table 1.
# [4] = test system: V79/ADM; experiment: Colony formation (proliferation) inhibition, ADM-resistant Chinese hamster cells (A-I Part 1); format: cell-based
# Experimental: as §5, §6, §7, §8
# [5] = test system: V79/ADM; experiment: Anti-cancer activity potentiating action, colony formation, V79/ADM resistant cells (A-III); format: cell-based, Chinese hamster; details: for IC50: Cricetulus griseus
# Experimental: as §1, §2, §3, §4
# [6] = test system: P388 mouse leukemia cells; experiment: Life prolongation of BDF1 mice with P388 leukemia, combination with CPA; format: in vivo, mouse (male BDF1); details: for Number of surviving animals: 30 days
# Experimental: Male BDF1 mice having a body weight of 20±2 g, 6 per group, were used. P388 mouse leukemia cells (one week after transplantation) as tumor cells were washed with 0.9% saline and suspended in saline so that the number of the cells reached 5×10^6 /m. The suspension was intraperitoneally administered to the mice at a rate of 0.2 ml (10^6 cells) per mouse.
# Twenty-four hours after the transplantation of tumor cells, the malate of formula (I) and cyclophosphamide ([…]) were successively administered intraperitoneally once to the mice, and the life prolongation rate of the mice in each group was determined.
# The malate of formula (I) was used after suspending it and Tween 80 at a ratio of 1:5 to saline, and this suspension was diluted with a solution of Tween 80 in the same concentration. CPA, on the other hand, was used as a solution in saline.
# CPA (50 mg/kg and 100 mg/kg) and the malate of formula (I) (10 mg/kg and 20 mg/kg) were administered singly or in combination, and the life prolongation rate was determined.
# [7] = V79/S, alone, Table 6, read-out: IC50, anti-cancer agent alone
# [8] = V79/S, with compound (I) 10 μg/ml, read-out: IC50 in combination with compound (I)
# [9] = V79/S, with compound (I) 10 μg/ml
# [10] = V79/ADM, alone, Table 6, read-out: IC50, anti-cancer agent alone
# [11] = V79/ADM, with compound (I) 5 μg/ml, read-out: IC50 in combination with compound (I)
# [12] = V79/ADM, with compound (I) 5 μg/ml
# [13] = read-out: IC50, anti-cancer agent alone
# [14] = read-out: IC50 in combination with compound (I)
# [15] = V79/ADM, with compound (I) 3 μg/ml, read-out: IC50 in combination with compound (I)
# [16] = V79/ADM, with compound (I) 3 μg/ml
molecule,measurement,setting,value
"CC[C@]1(O)C[C@@H]2CN(CCc3c([nH]c4ccccc34)[C@@](C(=O)OC)(c3cc4c(cc3OC)N(C)[C@H]3[C@@](O)(C(N)=O)[C@H](O)[C@]5(CC)C=CCN6CC[C@]43[C@@H]65)C2)C1 [VDS, vindesine]",Efficacy ratio (rated significant by Fisher's test),[1]; 0.5 μg/ml,0/8
"CN(Cc1cnc2nc(N)nc(N)c2n1)c1ccc(C(=O)N[C@@H](CCC(=O)O)C(=O)O)cc1 [MTX, methotrexate]",IC50,[2]; [7],0.014 µg/mL
same,IC50,[2]; [8],0.017 µg/mL
same,Potentiation activity,[2]; [9],0.8 times
same,IC50,"[3]; Cricetulus griseus, 216 h",0.017 µg/mL
same,IC50,"[4]; Cricetulus griseus, 216 h",0.0078 µg/mL
same,IC50,[5]; [10],0.0078 µg/mL
same,IC50,[5]; [11],< 0.0025 µg/mL
same,Potentiation activity,[5]; [12],> 3.12 times
same,Efficacy ratio (rated significant by Fisher's test),[1]; 3.0 μg/ml,1/8
O=P1(N(CCCl)CCCl)NCCCO1 (stereo not shown) [CPM],Efficacy ratio (rated significant by Fisher's test),[1]; 10 μg/ml,3/8
"Nc1ccn([C@@H]2O[C@H](CO)[C@@H](O)[C@@H]2O)c(=O)n1 [Ara-C, cytarabin]",IC50,[2]; [7],76 nM
same,IC50,[2]; [8],54 nM
same,Potentiation activity,[2]; [9],1.4 times
same,IC50,[5]; [10],220 nM
same,IC50,[5]; [11],35 nM
same,Potentiation activity,[5]; [12],6.3 times
"N[C@@H](Cc1ccc(N(CCCl)CCCl)cc1)C(=O)O [MPL, melphalan]",Efficacy ratio (rated significant by Fisher's test),[1]; 0.5 μg/ml,1/8
"Cc1ncc(CNC(=O)N(CCCl)N=O)c(N)n1 [ACNU, nimustine]",IC50,[2]; [13],7.6 µg/mL
same,IC50,[2]; [14],5.4 µg/mL
same,Potentiation activity,[2]; [9],1.4 times
same,IC50,[5]; [13],10 µg/mL
same,IC50,[5]; [14],3.1 µg/mL
same,Potentiation activity,[5]; [12],3.20 times
same,Efficacy ratio (rated significant by Fisher's test),[1]; 2.0 μg/ml,3/8
"[NH2][Pt]([NH2])([Cl])[Cl] [CDDP, cisplatin]","IC50, anti-cancer agent alone","[2]; V79/S, alone, Table 6",0.37 µg/mL
same,IC50 in combination with compound (I),[2]; [9],0.27 µg/mL
same,Potentiation activity,[2]; [9],1.4 times
same,IC50,"[3]; V79/S, 9 days, Table 1",0.37 µg/mL
same,IC50,"[4]; V79/ADM, 9 days, Table 1",0.32 µg/mL
same,"IC50, anti-cancer agent alone","[5]; V79/ADM, alone, Table 6",0.32 µg/mL
same,IC50 in combination with compound (I),[5]; [12],0.13 µg/mL
same,Potentiation activity,[5]; [12],2.5 times
same,Efficacy ratio (rated significant by Fisher's test),[1]; 0.5 μg/ml,4/8
"COc1cc([C@@H]2c3cc4c(cc3[C@@H](O[C@@H]3O[C@@H]5CO[C@@H](C)O[C@H]5[C@H](O)[C@H]3O)[C@H]3COC(=O)[C@H]23)OCO4)cc(OC)c1O [Etoposide, etoposide]",IC50,[2]; [7],0.27 µg/mL
same,IC50,[2]; [8],0.098 µg/mL
same,Potentiation activity,[2]; [9],2.8 times
same,IC50,[5]; [10],> 20 µg/mL
same,IC50,[5]; [15],7.4 µg/mL
same,Potentiation activity,[5]; [16],2.7 times
"COC(COC(N)=O)C1=C(N2CC2)C(=O)C(C)=C(N2CC2)C1=O (stereo not shown) [CQ, carboquone]",Efficacy ratio (rated significant by Fisher's test),[1]; 0.1 μg/ml,1/8
"CC[C@]1(O)C[C@@H]2CN(CCc3c([nH]c4ccccc34)[C@@](C(=O)OC)(c3cc4c(cc3OC)N(C)[C@H]3[C@@](O)(C(=O)OC)[C@H](OC(C)=O)[C@]5(CC)C=CCN6CC[C@]43[C@@H]65)C2)C1 [VLB, vinblastine]",Efficacy ratio (rated significant by Fisher's test),[1]; 0.1 μg/ml,3/8
"O=P1(N(CCCl)CCCl)NCCCO1 (stereo not shown) [CPA, cyclophosphamide]",MST (medium survival time),[6]; CPA 50 mg/kg i.p.,20.3
same,T/C vs control,[6]; CPA 50 mg/kg i.p.,201%
same,T/C vs CPA alone,[6]; CPA 50 mg/kg i.p. (reference group),100%
same,Number of surviving animals,[6]; CPA 50 mg/kg i.p.,0/6
same,MST (medium survival time),[6]; CPA 100 mg/kg i.p.,24.0
same,T/C vs control,[6]; CPA 100 mg/kg i.p.,238%
same,T/C vs CPA alone,[6]; CPA 100 mg/kg i.p. (reference group),100%
same,Number of surviving animals,[6]; CPA 100 mg/kg i.p.,1/6
"Cc1c2oc3c(C)ccc(C(=O)N[C@@H]4C(=O)N[C@H](C(C)C)C(=O)N5CCC[C@H]5C(=O)N(C)CC(=O)N(C)[C@@H](C(C)C)C(=O)O[C@@H]4C)c3nc-2c(C(=O)N[C@@H]2C(=O)N[C@H](C(C)C)C(=O)N3CCC[C@H]3C(=O)N(C)CC(=O)N(C)[C@@H](C(C)C)C(=O)O[C@@H]2C)c(N)c1=O [ACD, actinomycin D] (I: T[dV]P[Sar][NMeV] / II: T[dV]P[Sar][NMeV]; ester I:1-I:C, II:1-II:C; linker I:N-II:N via Actinocin(9to1))",IC50,[2]; [13],0.017 µg/mL
same,IC50,[2]; [14],0.0032 µg/mL
same,Potentiation activity,[2]; [9],5.3 times
same,IC50,"[3]; Cricetulus griseus, 216 h",0.017 µg/mL
same,IC50,"[4]; Cricetulus griseus, 216 h",0.28 µg/mL
same,IC50,[5]; [13],0.28 µg/mL
same,IC50,[5]; [14],0.0063 µg/mL
same,Potentiation activity,"[5]; V79/ADM, with compound (I) 10 μg/ml",44.4 times
same,Efficacy ratio (rated significant by Fisher's test),[1]; 0.01 μg/ml,0/8
"O=C1c2c(O)ccc(O)c2C(=O)c2c(NCCNCCO)ccc(NCCNCCO)c21 [Mitoxantrone, mitoxantrone]",IC50,[2]; [7],0.019 µg/mL
same,IC50,[2]; [8],0.0081 µg/mL
same,Potentiation activity,[2]; [9],2.3 times
same,IC50,"[3]; Cricetulus griseus, 216 h, V79/S, 9 days, Table 1, read-out: IC50",0.019 µg/mL
same,IC50,"[4]; Cricetulus griseus, 216 h, V79/ADM, 9 days, Table 1, read-out: IC50",0.36 µg/mL
same,IC50,[5]; [10],0.36 µg/mL
same,IC50,[5]; [15],0.074 µg/mL
same,Potentiation activity,[5]; [16],4.9 times
"O=c1[nH]cc(F)c(=O)[nH]1 [Example 5-FU, 5-fluorouracil]",IC50,[2]; [7],9700 nM
same,IC50,[2]; [8],2100 nM
same,Potentiation activity,[2]; [9],4.6 times
same,IC50,[5]; [10],7200 nM
same,IC50,[5]; [11],620 nM
same,Potentiation activity,[5]; [12],11.6 times
same,Efficacy ratio (rated significant by Fisher's test),[1]; 10 μg/ml,1/8
"CC[C@]1(O)C[C@H]2CN(CCc3c([nH]c4ccccc34)[C@@](C(=O)OC)(c3cc4c(cc3OC)N(C=O)[C@H]3[C@@](O)(C(=O)OC)[C@H](OC(C)=O)[C@]5(CC)C=CCN6CC[C@]43[C@@H]65)C2)C1 [VCR, vincristine]",IC50,[2]; [7],0.0271 µg/mL
same,IC50,[2]; [8],0.00325 µg/mL
same,Potentiation activity,[2]; [9],8.3 times
same,IC50,[5]; [10],0.73 µg/mL
same,IC50,[5]; [15],0.0351 µg/mL
same,Potentiation activity,[5]; [16],20.8 times
same,Efficacy ratio (rated significant by Fisher's test),[1]; 0.1 μg/ml,2/8
bleomycin [BLM],"IC50, anti-cancer agent alone","[2]; V79/S, alone, Table 6",2.1 µg/mL
same,IC50 in combination with compound (I),[2]; [9],0.01 µg/mL
same,Potentiation activity,[2]; [9],202 times
same,"IC50, anti-cancer agent alone","[5]; V79/ADM, alone, Table 6",0.56 µg/mL
same,IC50 in combination with compound (I),[5]; [16],0.0385 µg/mL
same,Potentiation activity,[5]; [16],14.5 times
same,Efficacy ratio (rated significant by Fisher's test),[1]; 1.0 μg/ml,2/8

# — patent US5004756A, “Anti-cancer activity potentiator” (priority 1988, dated 1991)
